For 1 substance, IC50 results are on record in article PMC4895043, “Biological Activities of Aerial Parts Extracts of Euphorbia characias” (BioMed Research International, 2016).

This test deals with T1, HIV-1 RT (HIV-1 M:B_HXB2R, UniProt P04585).
T1 construct: gene gag-pol; mature RT cut from Gag-Pol polyprotein
The experiment in a line: RNase H inhibition assay. The class given is biochemical. Conditions: RNase H activity; read-out: IC50 (μg/mL)^∗ / HIV-1 / RNase H. An excerpt:
RNase H inhibition assay on HIV-1 RT

In the case of RDS1759, the IC50 was 7.1 ± 0.5 µM.
